ChEMBL document CHEMBL3826902, “Synthesis and cytotoxic activities of semisynthetic zearalenone analogues” (Bioorg Med Chem Lett, 2016)
Activity calls are given as the source filed them. The calls are words filed in the database; no cut-off is given here.

Legend:
MCF7 [1] = assay: Cytotoxicity against human MCF7 cells assessed as reduction in cell viability at >50 ug/ml by resazurin microplate assay; assay type: functional, cell-based
KB [2] = assay: Cytotoxicity against human KB cells assessed as reduction in cell viability at >50 ug/ml by resazurin microplate assay; assay type: functional, cell-based
KB [3] = assay: Cytotoxicity against human KB cells assessed as reduction in cell viability by resazurin microplate assay; assay type: functional, cell-based
Vero [4] = assay: Cytotoxicity against African green monkey Vero cells assessed as reduction in cell viability by green fluorescent protein-based assay; design: species or system Chlorocebus sabaeus
Vero [5] = assay: Cytotoxicity against African green monkey Vero cells assessed as reduction in cell viability at >50 ug/ml by green fluorescent protein-based assay; conditions: Chlorocebus sabaeus
MCF7 [6] = assay: Cytotoxicity against human MCF7 cells assessed as reduction in cell viability by resazurin microplate assay; assay type: functional, cell-based
[7] = Cytotoxicity against human HL60 cells assessed as reduction in cell viability after 24 hrs by MTT assay; assay type: functional, cell-based; conditions: HL-60, 24 h
[8] = Chlorocebus sabaeus, Vero, read-out: IC50
[9] = Homo sapiens, KB, read-out: IC50
[10] = Homo sapiens, MCF7, read-out: IC50

SMILES | Activity (MCF7 [1]) | Activity (KB [2]) | IC50 (KB [3]; kb) | IC50 (Vero [4]; vero) | Activity (Vero [5]) | IC50 (MCF7 [6]; mcf7) | IC50 (Vero [4]; [8]) [µM] | IC50 (KB [3]; [9]) [µM] | IC50 (MCF7 [6]; [10]) [µM] | IC50 [7] [µM]
COc1cc(O)c2c(c1)CCCCC[C@@H](O)CCC[C@H](C)OC2=O | inactive | inactive | Not Active | Not Active | Non-toxic | Not Active |  |  |  | 
C[C@H]1CCC[C@@H](O)CCC/C=C/c2cc(O)cc(O)c2C(=O)O1 | inactive | inactive | Not Active |  |  | Not Active | 25.4 |  |  | 
CCCCCCCCOc1cc(O)c2c(c1)/C=C/CCC[C@@H](O)CCC[C@H](C)OC2=O |  |  |  |  |  |  | 24.2 | 40.9 | 75.2 | 
CCCOc1cc(O)c2c(c1)/C=C/CCC[C@@H](O)CCC[C@H](C)OC2=O |  |  |  |  |  |  | 26.2 | 35.7 | 43.8 | 
COc1cc(O)c2c(c1)CCCCC[C@H](O)CCC[C@H](C)OC2=O | inactive | inactive | Not Active |  |  | Not Active | 148 |  |  | 
C[C@H]1CCCC(=O)CCC/C=C/c2cc(O)cc(O)c2C(=O)O1 [ZEARALENONE] |  |  |  |  |  |  | 40.6 | 46.3 | 105 | 138
CCC(=O)Oc1cc(O)c2c(c1)/C=C/CCC[C@@H](O)CCC[C@H](C)OC2=O | inactive |  |  |  |  | Not Active | 129 | 85.7 |  | 
COc1cc2c(c(OC)c1)C(=O)O[C@@H](C)CCC[C@H](O)CCCCC2 | inactive | inactive | Not Active | Not Active | Non-toxic | Not Active |  |  |  | 
CC(=O)Oc1cc(O)c2c(c1)/C=C/CCC[C@@H](O)CCC[C@H](C)OC2=O |  |  |  |  |  |  | 136 | 51.6 | 89 | 
Cc1c2ccncc2c(C)c2c1[nH]c1ccccc12 [ELLIPTECINE] |  |  |  |  |  |  | 4.26 | 8.28 |  | 
COc1cc(O)c2c(c1)/C=C/CCC[C@@H](O)CCC[C@H](C)OC2=O |  |  |  |  |  |  | 53.1 | 104 | 93.3 | 
COc1cc(O)c2c(c1Cl)/C=C/CCCC(=O)CCC[C@H](C)OC2=O | inactive |  |  |  |  | Not Active | 51.4 | 108 |  | 
C[C@H]1CCC[C@H](O)CCCCCc2cc(O)cc(O)c2C(=O)O1 [ZERANOL] | inactive | inactive | Not Active |  |  | Not Active | 50 |  |  | 
COc1cc2c(c(OC)c1)C(=O)O[C@@H](C)CCC[C@H](O)CCC/C=C/2 | inactive | inactive | Not Active | Not Active | Non-toxic | Not Active |  |  |  | 
COc1cc(O)c2c(c1)CCCCCC(=O)CCC[C@H](C)OC2=O | inactive | inactive | Not Active | Not Active | Non-toxic | Not Active |  |  |  | 
COc1cc2c(c(OC)c1)C(=O)O[C@@H](C)CCC[C@@H](O)CCCCC2 | inactive | inactive | Not Active | Not Active | Non-toxic | Not Active |  |  |  | 
CCOc1cc(O)c2c(c1)/C=C/CCC[C@H](O)CCC[C@H](C)OC2=O |  |  |  |  |  |  | 45.3 | 60.1 | 70.2 | 
COc1cc(O)c2c(c1)/C=C/CCC[C@H](O)CCC[C@H](C)OC2=O | inactive |  |  | Not Active | Non-toxic | Not Active |  | 56 |  | 
COc1cc(O)c2c(c1)/C=C/CCCC(=O)CCC[C@H](C)OC2=O | inactive | inactive | Not Active | Not Active | Non-toxic | Not Active |  |  |  | 

SMILES | Activity (MCF7 [1]) | Activity (KB [2]) | IC50 (KB [3]; kb) | IC50 (Vero [4]; vero) | Activity (Vero [5]) | IC50 (MCF7 [6]; mcf7) | IC50 (Vero [4]; [8]) [µM] | IC50 (KB [3]; [9]) [µM] | IC50 (MCF7 [6]; [10]) [µM] | IC50 [7] [µM]
COc1cc(OC)c2c(c1Cl)/C=C/CCCC(=O)CCC[C@H](C)OC2=O | inactive | inactive | Not Active | Not Active | Non-toxic | Not Active |  |  |  | 
COc1cc2c(c(OC)c1)C(=O)O[C@@H](C)CCCC(=O)CCC/C=C/2 | inactive | inactive | Not Active | Not Active | Non-toxic | Not Active |  |  |  | 
COc1cccc2c1C(=O)c1c(O)c3c(c(O)c1C2=O)C[C@@](O)(C(=O)CO)C[C@@H]3O[C@H]1C[C@H](N)[C@H](O)[C@H](C)O1 [DOXORUBICIN] |  |  |  |  |  |  |  | 1.06 |  | 
C[C@H]1CCC[C@@H](O)CCCCCc2cc(O)cc(O)c2C(=O)O1 [TALERANOL] | inactive | inactive | Not Active |  |  | Not Active | 22.6 |  |  | 
CCCOc1cc(O)c2c(c1)/C=C/CCC[C@H](O)CCC[C@H](C)OC2=O |  |  |  |  |  |  | 53.3 | 83.4 | 81.9 | 
COc1cc2c(c(OC)c1)C(=O)O[C@@H](C)CCC[C@@H](O)CCC/C=C/2 | inactive | inactive | Not Active | Not Active | Non-toxic | Not Active |  |  |  | 
CCC(=O)Oc1cc(O)c2c(c1)/C=C/CCCC(=O)CCC[C@H](C)OC2=O | inactive |  |  |  |  | Not Active | 44.1 | 52.4 |  | 
C[C@H]1CCCC(=O)CCC/C=C/c2c(Cl)c(O)cc(O)c2C(=O)O1 | inactive |  |  |  |  | Not Active | 140 | 89.9 |  | 
CCOc1cc(O)c2c(c1)/C=C/CCC[C@@H](O)CCC[C@H](C)OC2=O |  |  |  | Not Active | Non-toxic |  |  | 66.9 | 61.8 | 
CC/C(=C(\c1ccccc1)c1ccc(OCCN(C)C)cc1)c1ccccc1 [TAMOXIFEN] |  |  |  |  |  |  |  |  | 19.3 | 
CCC(=O)Oc1cc2c(c(OC(=O)CC)c1)C(=O)O[C@@H](C)CCCC(=O)CCC/C=C/2 | inactive | inactive | Not Active | Not Active | Non-toxic | Not Active |  |  |  | 
CC(=O)Oc1cc(O)c2c(c1)/C=C/CCCC(=O)CCC[C@H](C)OC2=O | inactive |  |  |  |  | Not Active | 134 | 52.9 |  | 
CC(=O)Oc1cc(O)c2c(c1)/C=C/CCC[C@H](O)CCC[C@H](C)OC2=O | inactive |  |  |  |  | Not Active | 13.6 | 48.9 |  | 
CC(=O)Oc1cc2c(c(OC(C)=O)c1)C(=O)O[C@@H](C)CCCC(=O)CCC/C=C/2 | inactive |  |  |  |  | Not Active | 48 | 59.7 |  | 
CCCCCCCCOc1cc(O)c2c(c1)/C=C/CCC[C@H](O)CCC[C@H](C)OC2=O |  |  |  |  |  |  | 73.4 | 82.2 | 93.6 | 
CCC(=O)Oc1cc(O)c2c(c1)/C=C/CCC[C@H](O)CCC[C@H](C)OC2=O | inactive |  |  |  |  | Not Active | 35 | 33.4 |  | 
COc1cc2c(c(OC)c1)C(=O)O[C@@H](C)CCCC(=O)CCCCC2 | inactive | inactive | Not Active | Not Active | Non-toxic | Not Active |  |  |  | 
C[C@H]1CCC[C@H](O)CCC/C=C/c2cc(O)cc(O)c2C(=O)O1 | inactive |  |  |  |  | Not Active | 60.3 | 100 |  | 
C[C@H]1CCCC(=O)CCCCCc2cc(O)cc(O)c2C(=O)O1 [ZEARALANONE] | inactive | inactive | Not Active |  |  | Not Active | 151 |  |  | 
